{
  "source": "patent US20070059632A1",
  "about": "“Method of manufacturing a semiconductor device” (priority 2003, published 2007)",
  "format_in_all_cases": "physicochemical",
  "key": {"[1]": {"assay": "Inhibition of dissolution in alkali developing solution", "parameters": "key: A: no change was visually noticed in the state of film; C: the surface was roughened or a part of the film was lost because of dissolution", "details": "resist film immersed in 2.38% aqueous solution of TMAH for 3 min", "procedure": "(3) Inhibition of Dissolution in Alkali Developing Solution\nThe resist film formed in the evaluation 2 was immersed in a developing solution (2.38% aqueous solution of TMAH) for 3 min. The results were rated as “A” when no change was visually noticed in the state of film, and “C” when the surface was roughened or a part of the film was lost because of dissolution."}, "[2]": {"assay": "Solubility of compound in safety solvent", "details": "safety solvent (PGMEA or EL) at 23° C.", "procedure": "(1) Solubility of Compound in Safety Solvent\nEach compound was tested for its solubility in safety solvent (PGMEA or EL) at 23° C. The solubility was rated as “A” when dissolved in an amount of 5% by weight or more, “B” when dissolved in an amount of 0.1% by weight or more but less than 5% by weight, and “C” when not dissolved in an amount of 0.1% by weight or more."}, "[3]": {"assay": "Alkali developability", "parameters": "key: A: the resist film dissolved completely and disappeared; C: the resist film remained not dissolved even in a slight amount", "details": "tested on the corresponding polyphenol compound A before introducing the acid-dissociating group; film immersed in 2.38% aqueous TMAH for 10 s", "procedure": "(5) Alkali Developability\nA polyphenol compound A corresponding to each compound before introducing the acid-dissociating functional group was examined for its developability with an alkali developing solution.\nA 10% by weight solution of each polyphenol compound A in PGMEA was spin-coated using a spin coater, to form a resist film of about 0.2 μm thick. After heating on a hot plate for 3 min at 110° C., the resist film was immersed in a 2.38% aqueous solution of TMAH for 10 s. The results were rated as “A” when the resist film dissolved completely and disappeared, and “C” when the resist film remained not dissolved even in a slight amount."}},
  "data": [
    {"smiles": "CC(C)(C)OC(=O)Oc1ccc2c(c1)Oc1cc(OC(=O)OC(C)(C)C)ccc1C21c2ccccc2-c2ccccc21", "note": "[Compound 11-2]", "values": [
      {"measurement": "(3) Inhibition of dissolution in developing solution", "setting": "[1]", "result": "A"},
      {"measurement": "(1) Solubility in safety solvent", "setting": "[2]", "result": "B (dissolved in an amount of 0.1% by weight or more but less than 5% by weight)"},
      {"measurement": "(5) Alkali developability", "setting": "[3]", "result": "A"}
    ]},
    {"smiles": "CCOC(C)Oc1ccc2c(c1)Oc1cc(O)ccc1C21c2ccccc2-c2ccccc21", "note": "(stereo not drawn) [Compound 11-3]", "values": [
      {"measurement": "(3) Inhibition of dissolution in developing solution", "setting": "[1]", "result": "A"},
      {"measurement": "(1) Solubility in safety solvent", "setting": "[2]", "result": "A (dissolved in an amount of 5% by weight or more)"},
      {"measurement": "(5) Alkali developability", "setting": "[3]", "result": "A"}
    ]},
    {"smiles": "CCOC(C)Oc1ccc2c(c1)Oc1cc(O)ccc1C21Cc2cccc3cccc1c23", "note": "(stereo not drawn) [Compound 12-1]", "values": [
      {"measurement": "(3) Inhibition of dissolution in developing solution", "setting": "[1]", "result": "A"},
      {"measurement": "(1) Solubility in safety solvent", "setting": "[2]", "result": "A (dissolved in an amount of 5% by weight or more)"},
      {"measurement": "(5) Alkali developability", "setting": "[3]", "result": "A"}
    ]},
    {"smiles": "CC(C)(C)OC(=O)Oc1ccc(C(c2ccc(OC(=O)OC(C)(C)C)cc2)c2ccc(OC(=O)OC(C)(C)C)cc2)cc1", "note": "[Compound 14-3, reference compound]", "values": [
      {"measurement": "(3) Inhibition of dissolution in developing solution", "setting": "[1]", "result": "A"},
      {"measurement": "(1) Solubility in safety solvent", "setting": "[2]", "result": "A (dissolved in an amount of 5% by weight or more)"},
      {"measurement": "(5) Alkali developability", "setting": "[3]", "result": "A"}
    ]},
    {"smiles": "CC(C)(C)OC(=O)Oc1ccc(-c2cc(-c3ccc(OC(=O)OC(C)(C)C)cc3)cc(-c3ccc(OC(=O)OC(C)(C)C)cc3)c2)cc1", "note": "[Compound 14-4, reference compound]", "values": [
      {"measurement": "(3) Inhibition of dissolution in developing solution", "setting": "[1]", "result": "A"},
      {"measurement": "(1) Solubility in safety solvent", "setting": "[2]", "result": "A (dissolved in an amount of 5% by weight or more)"},
      {"measurement": "(5) Alkali developability", "setting": "[3]", "result": "A"}
    ]},
    {"smiles": "Cc1cc(C(C)(c2ccc(O)c(C)c2)c2ccc3ccccc3c2)ccc1O", "note": "[Compound 14-5, 1-(2-naphthyl)-1,1-bis(3-methyl-4-hydroxyphenyl)ethane, reference compound]", "values": [
      {"measurement": "(3) Inhibition of dissolution in developing solution", "setting": "[1]", "result": "C"},
      {"measurement": "(1) Solubility in safety solvent", "setting": "[2]", "result": "A (dissolved in an amount of 5% by weight or more)"},
      {"measurement": "(5) Alkali developability", "setting": "[3]", "result": "A"}
    ]}
  ]
}
